Results from article PMC5424463, “A strategy based on nucleotide specificity leads to a subfamily-selective and cell-active inhibitor of N ^6-methyladenosine demethylase FTO” (Chemical Science, 2014).

Key:
FTO [1] = molecular target: T1, FTO (Homo sapiens, UniProt Q9C0B1); assay: HPLC-based inhibition assay for FTO, m3T substrate; type: biochemical; conditions: HPLC-based demethylase assay, m3T substrate; read-out: IC50 (FTO)
T1 construct: The human full length FTO construct used in this study; made in house; host or cells: E. coli BL21 (DE3) Rosetta T1R
Experimental: HPLC-based inhibition assays for FTO
The assay was modified from previously reported method.[17] It is performed in triplicate for each inhibitor, in a final reaction volume of 25 µL. Reaction consisted of FTO (1 µM), 2OG (50 µM), (NH4)2Fe(SO4)2·6H2O (50 µM), L-ascorbate (2 mM), 3-methylthymidine (m3T substrate, 10 µM) in 50 mM HEPES buffer, pH 7.5, and inhibitor at various concentrations (final DMSO concentration not more than 1% v/v of assay mix). The reaction was incubated at 4°C for 1 h, before analysis on a HPLC system. The substrate (m3T) and the demethylated product (thymidine) were separated using a Zorbax C18 column (4.6 mm x 250 mm) with a […]
flow rate of 1 mL/min at room temperature.
The percentage inhibition was estimated based on the peak areas of the 3-methylthymidine substrate and the thymidine product. For IC50 determination, eight different concentrations of […]
the variation in percentage demethylation at different inhibitor concentrations, using nonlinear regression, with normalized dose-response fit on GraphPad Prism 6.0™.
HPLC-based assay for FTO was also performed using an m6A-ssRNA as substrate. The assay was modified from previously reported method.[21] All reaction conditions are as described for the inhibition of m3T demethylation above, except that a 15-mer ssRNA with the sequence 5’-CUUGUCA(m6A)CAGCAGA-3’ (Yale University, W.M. Keck Foundation Biotechnology Resource Laboratory) was used as substrate (10 µM). The reaction was analysed on a bio-inert HPLC system. The m6A-ssRNA substrate and the corresponding demethylated product were separated using a Dionex DNAPac PA200 anion-exchange

FTO [2] = molecular target: T1, FTO; assay: Differential scanning fluorimetry (DSF)-based binding assay, FTO; conditions: 100 μM compound, 2 μM protein, 50 μM MnCl2, read-out: Tm shift (FTO)
Experimental: Superdex-200 column (GE Healthcare) pre-equilibrated with 20 mM HEPES, pH 7.5, 300 mM NaCl, 10% (v/v) glycerol, 0.5 mM TCEP. […]
Differential scanning fluorimetry (DSF)-based binding assay
DSF-based binding assay was performed using a MiniOpticon™ Real-Time PCR Detection System (Bio-Rad), monitoring protein unfolding using SYPRO orange (Invitrogen) according […]
to the reported method.[16] […]
and emission respectively. Reaction mixes contained 2 μM protein, 50 μM MnCl2, 100 μM […]
Reagents were prepared in 50mM
HEPES buffer, pH 7.5 except metals, which were dissolved as 100 mM stocks in 20 mM HCl, then further diluted in MilliQ water. Compounds tested were prepared in 100% DMSO and added such that the final concentration of DMSO was not more than 1% v/v of assay […]
increased linearly by 1°C min -1. The software provided was used to perform global minimum subtraction. The inflection point, representing Tm, was calculated by fitting the Boltzmann equation to the sigmoidal curves obtained; data were processed using GraphPad Prism 6.0™.
The Tm shift caused by the addition of small molecules/ fragments was determined by subtraction of the “reference” Tm (protein incubated with metal and 1% v/v DMSO) from the Tm obtained in the presence of the compound. […]

PHD2 = test system: PHD2; set-up: method as in PMID 16858410; conditions: known inhibitor; cited from earlier work

T1 sequence (Q9C0B1 whole entry): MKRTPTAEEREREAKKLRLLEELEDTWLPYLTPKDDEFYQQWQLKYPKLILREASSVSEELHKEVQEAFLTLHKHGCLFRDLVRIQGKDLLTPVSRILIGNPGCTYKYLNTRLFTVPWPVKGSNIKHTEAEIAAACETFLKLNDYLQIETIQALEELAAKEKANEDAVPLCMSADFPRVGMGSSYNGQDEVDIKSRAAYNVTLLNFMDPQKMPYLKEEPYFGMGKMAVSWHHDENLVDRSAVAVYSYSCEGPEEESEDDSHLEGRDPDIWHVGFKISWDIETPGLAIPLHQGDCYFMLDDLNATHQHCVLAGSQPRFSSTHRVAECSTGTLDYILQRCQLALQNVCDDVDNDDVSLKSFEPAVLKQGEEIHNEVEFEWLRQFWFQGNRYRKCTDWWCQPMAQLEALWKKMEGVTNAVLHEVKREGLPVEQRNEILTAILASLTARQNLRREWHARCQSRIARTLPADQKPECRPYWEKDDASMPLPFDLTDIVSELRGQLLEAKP

## O=C(O)C=CC(=O)NNC(=O)c1cc(Cc2ccccc2)ccn1 [Compound 22]
FTO [1]
  IC50: 86.8 µM
FTO [2]
  ΔTm at 100 µM: 3 °C

## O=C(O)/C=C/C(=O)NNC(=O)c1cccnc1 [Compound 21]
PHD2
  IC50: 0.082 µM

## O=C(O)/C=C/C(=O)NNC(=O)c1ccccn1 [Compound 23]
FTO [1]
  IC50: 109 µM
FTO [2]
  ΔTm at 100 µM: 2.7 °C
